Laboratory results as given in article PMC6694155, “PTPσ inhibitors promote hematopoietic stem cell regeneration” (Nature Communications, 2019).
Values joined by “and” are separate entries in the source; they are usually repeats but may differ in a detail not shown here. Identical values can stand only once.

How the values were obtained:
[1] = biological target: T1, Lambda PP (Lambda Protein Phosphatase) (Escherichia phage lambda, UniProt P03772); experiment: PhosphataseProfiler screen: Lambda PP; assay type: biochemical; conditions: replicates
T1 construct: purchased Eurofins Pharma Discovery Services UK
Experimental: (§1) Compound DJ001 was evaluated in a PhosphataseProfiler™ screen at 10 μM and 1 μM (2.7 μg/mL and 0.27 μg/mL) concentrations at Eurofins Pharma Discovery Services UK (Study number UK022-0004033) against a panel of 21 Phosphatases. In each experiment, the respective reference antagonist/agonist was tested directly with DJ001 and the data were compared with historical values determined at Eurofins. DJ001 compound inhibition was calculated as percentage inhibition of the enzymatic activity compared with control.

[2] = biological target: T2, SHP-2 (Protein-Tyrosine Phosphatase 2C) (Homo sapiens, UniProt Q06124); experiment: PhosphataseProfiler screen: SHP-2; assay type: biochemical; conditions: replicates
T2 construct: purchased Eurofins Pharma Discovery Services UK
Experimental: as §1

BM CD34−KSL HSCs = experiment: 7 day culture of non-irradiated BM CD34−KSL cells in TSF media; assay type: cell-based, mouse; conditions: for Supplementary Figure 3a (center panel): 7 day culture of BM CD34−KSL cells / Supplementary Figure 3a (left panel): 7 day culture of BM CD34−KSL cells / Supplementary Figure 3a (right panel): 7 day culture of BM CD34−KSL cells: replicates
Text: BM cells were first treated with ACK lysis buffer (Sigma Aldrich) and lineage-committed cells were removed using a Direct Lineage Cell Depletion Kit (Miltenyi Biotec, #130-110-470, 1:5). Lin^− cells were stained with APC-Cy7-conjugated anti-mouse Sca1 (BD Biosciences, #560654, 1:100), PE-conjugated anti-ckit (BD Biosciences, #553355, 1:100), V450 lineage cocktail (BD Biosciences, #561301, 1:10), and FITC-conjugated anti-CD34 (BD Biosciences, #553733, 1:100) antibodies. Sterile cell sorting was conducted on a BD FACS-Aria cytometer. Purified KSL cells and CD34^−c-kit^+sca-1^+Lin^− (CD34^−KSL) cells were collected into IMDM (Life Technologies) + 10% FBS + 1% penicillin–streptomycin.
CFC assays (colony-forming unit-granulocyte monocyte), burst-forming unit-erythroid, and CFU-GEMM were performed using MethoCult GF M3434 (Stemcell Technologies)[6]. For all in vitro assays, BM CD34^−KSL cells, KSL cells, and Lin^− cells were cultured in TSF media (IMDM, 10% FBS, 1% pen-strep, 20 ng/mL recombinant mouse TPO, 125 ng/mL recombinant mouse SCF, 50 ng/mL recombinant mouse Flt3 ligand). Recombinant mouse SCF, Flt3 ligand, and TPO were purchased from R&D Systems. For competitive repopulation assays, BM cells were isolated from donor 10–12-week-old female CD45.2^+ mice. Recipient 10-week-old female CD45.1^+ B6.SJL mice were irradiated with 950 cGy TBI using a Cs137 irradiator and donor BM cells were administered via tail vein injection along with a competing dose of 1 × 10^5 non-irradiated host BM cells. Multilineage donor hematopoietic cell engraftment was measured in the PB by flow cytometry.

T2 sequence (Q06124 whole entry, species assumed): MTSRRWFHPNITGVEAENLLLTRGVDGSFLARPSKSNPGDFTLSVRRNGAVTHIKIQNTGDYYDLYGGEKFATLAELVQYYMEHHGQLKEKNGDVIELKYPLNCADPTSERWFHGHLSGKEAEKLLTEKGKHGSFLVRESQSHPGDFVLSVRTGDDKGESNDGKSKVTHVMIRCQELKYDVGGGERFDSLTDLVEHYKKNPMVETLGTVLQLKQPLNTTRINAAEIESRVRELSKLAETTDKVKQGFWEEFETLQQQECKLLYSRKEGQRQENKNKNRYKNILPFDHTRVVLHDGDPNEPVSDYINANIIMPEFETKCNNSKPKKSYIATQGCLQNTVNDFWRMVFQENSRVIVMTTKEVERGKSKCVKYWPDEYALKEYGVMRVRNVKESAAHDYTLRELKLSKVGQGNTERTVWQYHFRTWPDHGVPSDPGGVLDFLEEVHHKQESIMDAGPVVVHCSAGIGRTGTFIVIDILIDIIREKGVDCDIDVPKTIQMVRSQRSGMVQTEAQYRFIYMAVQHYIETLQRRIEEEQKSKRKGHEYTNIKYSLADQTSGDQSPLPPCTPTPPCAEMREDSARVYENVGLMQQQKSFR
T1 sequence (P03772 whole entry): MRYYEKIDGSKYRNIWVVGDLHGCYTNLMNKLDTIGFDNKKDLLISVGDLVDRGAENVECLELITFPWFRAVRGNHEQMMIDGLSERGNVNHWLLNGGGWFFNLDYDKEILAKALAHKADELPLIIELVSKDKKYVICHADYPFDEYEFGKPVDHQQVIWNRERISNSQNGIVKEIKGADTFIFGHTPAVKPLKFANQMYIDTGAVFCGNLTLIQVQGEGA

O=C(/C=C\Nc1cccc([N+](=O)[O-])c1)c1ccccc1 [DJ001, (Z)-3-((3-nitrophenyl)amino)-1-phenylprop-2-en-1-one]
Supplementary Figure 1: Lambda PP activity ([1]; 0.27 μg/mL DJ001): 126 and 132 and 133
Supplementary Figure 1: Lambda PP activity ([1]; 2.7 μg/mL DJ001): 118 and 122 and 125
Supplementary Figure 1: SHP-2 activity ([2]; 0.27 μg/mL DJ001): 99 and 96 and 102
Supplementary Figure 1: SHP-2 activity ([2]; 2.7 μg/mL DJ001): 87 and 90 and 94
Supplementary Figure 3a (center panel): 7 day culture of BM CD34−KSL cells (BM CD34−KSL HSCs; 10 ng/mL): 8.03 and 6.26 and 7.07 and 7.49
Supplementary Figure 3a (left panel): 7 day culture of BM CD34−KSL cells (BM CD34−KSL HSCs; 10 ng/mL): 107000 and 154000 and 141000 and 135000
Supplementary Figure 3a (right panel): 7 day culture of BM CD34−KSL cells (BM CD34−KSL HSCs; 10 ng/mL): 8589 and 9633 and 9964 and 10109
Supplementary Figure 3a (center panel): 7 day culture of BM CD34−KSL cells (BM CD34−KSL HSCs; 100 ng/mL): 15.07 and 8.84 and 9.18 and 11.37
Supplementary Figure 3a (left panel): 7 day culture of BM CD34−KSL cells (BM CD34−KSL HSCs; 100 ng/mL): 127000 and 142000 and 174000 and 219000
Supplementary Figure 3a (right panel): 7 day culture of BM CD34−KSL cells (BM CD34−KSL HSCs; 100 ng/mL): 19062 and 12549 and 15920 and 24836
Supplementary Figure 3a (center panel): 7 day culture of BM CD34−KSL cells (BM CD34−KSL HSCs; 1000 ng/mL): 16.07 and 11.49 and 11 and 12.87
Supplementary Figure 3a (left panel): 7 day culture of BM CD34−KSL cells (BM CD34−KSL HSCs; 1000 ng/mL): 131000 and 209000 and 128000 and 136000
Supplementary Figure 3a (right panel): 7 day culture of BM CD34−KSL cells (BM CD34−KSL HSCs; 1000 ng/mL): 21058 and 24017 and 14076 and 17507
percentages and numbers of BM KSL cells in culture vs control (BM CD34−KSL HSCs; 10–1,000 ng/mL DJ001, 7 days): increased the percentages and numbers of BM KSL cells
